What is called fraction unbound is free concentration divided by total concentration. What is called bioavailability is the share of a dose that reaches the circulation, judged against a reference dose that is usually intravenous.

The text below walks through data of US20240100025A1, “Materials and Methods for Treating Viral and Other Medical Conditions” (Biotronik AG, priority 2020, published 2024).

Each structure is given as a SMILES string.

The conditions of data set [1]: Novartis everolimus study, rats; cited from earlier work.
For data set [2] the following is noted: oral; cited from earlier work.
For another data set, the system named is Hantavirus. The note with it: 0.05 μM, lowest concentration studied; cited from earlier work.

`CO[C@H]1C[C@@H]2CC[C@@H](C)[C@@](O)(O2)C(=O)C(=O)N2CCCC[C@H]2C(=O)O[C@H]([C@H](C)C[C@@H]2CC[C@@H](OCCO)[C@H](OC)C2)CC(=O)[C@H](C)/C=C(\C)[C@@H](O)[C@@H](OC)C(=O)[C@H](C)C[C@H](C)/C=C/C=C/C=C/1C` [everolimus]: the “tissue distribution, highest drug concentrations” value in data set [1] is “highest drug concentrations were in the gastrointestinal tract and liver”.

In turn, `CO[C@H]1C[C@@H]2CC[C@@H](C)[C@@](O)(O2)C(=O)C(=O)N2CCCC[C@H]2C(=O)O[C@H]([C@H](C)C[C@@H]2CC[C@@H](O)[C@H](OC)C2)CC(=O)[C@H](C)/C=C(\C)[C@@H](O)[C@@H](OC)C(=O)[C@H](C)C[C@H](C)/C=C/C=C/C=C/1C` [sirolimus, Rapamycin] gave a fraction unbound in “Protein binding” of 0.049. In data set [2], the bioavailability is reported as approximately 14%.

For the compound `CO[C@H]1C[C@@H]2CC[C@@H](C)[C@@](O)(O2)C(=O)C(=O)N2CCCC[C@H]2C(=O)O[C@H]([C@H](C)C[C@@H]2CC[C@@H](OC(=O)C(C)(CO)CO)[C@H](OC)C2)CC(=O)[C@H](C)/C=C(\C)[C@@H](O)[C@@H](OC)C(=O)[C@H](C)C[C@H](C)/C=C/C=C/C=C/1C` [temsirolimus], in the data set on Hantavirus, the “reduction in virus titers” value is recorded as 50%.
